Assay results reported in ChEMBL document CHEMBL1201862, “PubChem BioAssay data set” (2004).
Calls of active or inactive are those of the source.

Tests used:
[1] = Cytotoxicity screening for potential Inhibitors of Bacterial Capsule Biogenesis. [Related pubchem assays (depositor defined):AID488970]; assay type: functional
[2] = Trypanosoma cruzi growth suppression in host cells – NIH3T3 host cells, beta-gal luminescence, confirmation (AID 2044); assay type: functional, cell-based;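 further: intracellular parasites grown in NIH/3T3 mouse fibroblasts as host cells; luminescent beta-galactosidase reporter signal from transgenic T. cruzi replicating inside host cells; inhibitors lower the luminescence signal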
[3] = target: T1, Polyadenylate-binding protein 1 (Homo sapiens, UniProt P11940); assay: MLLE binding blockers, Cy5 peptide tracer – biochemical, fluorescence polarization, Cy5-PAM2 peptide, secondary, miRNA deadenylation inhibitor project, dose response (AID 602260); assay type: functional; conditions: read-out: IC50_Mean
[4] = target: Neuropeptide Y receptor type 2 (Homo sapiens, UniProt P49146); assay: Fluorescence-based cell-based high-throughput dose response assay for agonists of NPY-Y2. [Related pubchem assays: 1703 (Screening assay (CNGC inhibitors).), 1359 (Screening assay (NPY-Y2 potentiators or agonists).), 1304 (Screening assay (NPY-Y1 potentiators or agonists).), 1710 (Screening assay (NPY-Y2 agonists).), 1791 (Summary AID.)]; assay type: functional
[5] = NIH3T3 cell viability loss – ATP luminescence, mouse fibroblasts, counter-screen, dose response (AID 2010); assay type: functional, cell-based;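 further: cells exposed to compound for about 90 hours before reading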
HEK293 = assay: Fluorescence-based counterscreen for potentiators or agonists of NPY-Y2: cell-based high-throughput dose response assay to identify inhibitors of cyclic nucleotide gated ion channel (CNGC) activity. In this assay, the parental HEK293 cell line transfected with a cyclic-nucleotide gated ion channel (CNGC)-based cAMP sensor is used to measure inhibition of isoproterenol-induced CNGC activity by test compound.; assay type: functional; conditions: Homo sapiens;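 further: stimulus is 1 µM isoproterenol at EC100 plus PDE inhibitor Ro 20-1724 at 25 µM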
[6] = target: T1, Polyadenylate-binding protein 1; assay: MLLE domain peptide-binding blockers, IC50 – biochemical, fluorescence polarization, FITC-PAM2 peptide, dose response (AID 602259); assay type: functional; conditions: read-out: IC50_Mean
[7] = target: Neuropeptide Y receptor type 1 (Homo sapiens, UniProt P25929); assay: Fluorescence-based counterscreen for agonists of NPY-Y2: cell-based high-throughput dose response assay for agonists of NPY-Y1.; assay type: functional
[8] = non-specific 3'UTR reporter inhibition in Clone20-Shn3RL – cell-based, Renilla luciferase, cherry-picked, counter-screen for Shn3 inhibitor project, dose response (AID 624133); assay type: functional
[9] = DRD fibroblast viability loss – cell-based, non-viral oncogenic, luminescence, dose response (AID 1934); assay type: functional; conditions: Homo sapiens
BJ [10] = assay: cells; assay type: functional, cell-based; conditions: Homo sapiens
[11] = target: T2, Sphingosine 1-phosphate receptor 4 (Homo sapiens, UniProt O95977); assay: Fluorescence dose response cell-based high throughput screening assay for antagonists of the Sphingosine 1-Phosphate Receptor 4 (S1P4). [Related pubchem assays: 1524 (Confirmation in triplicates.), 1510 (Primary screen.)]; assay type: functional
T2 sequence (O95977 whole entry): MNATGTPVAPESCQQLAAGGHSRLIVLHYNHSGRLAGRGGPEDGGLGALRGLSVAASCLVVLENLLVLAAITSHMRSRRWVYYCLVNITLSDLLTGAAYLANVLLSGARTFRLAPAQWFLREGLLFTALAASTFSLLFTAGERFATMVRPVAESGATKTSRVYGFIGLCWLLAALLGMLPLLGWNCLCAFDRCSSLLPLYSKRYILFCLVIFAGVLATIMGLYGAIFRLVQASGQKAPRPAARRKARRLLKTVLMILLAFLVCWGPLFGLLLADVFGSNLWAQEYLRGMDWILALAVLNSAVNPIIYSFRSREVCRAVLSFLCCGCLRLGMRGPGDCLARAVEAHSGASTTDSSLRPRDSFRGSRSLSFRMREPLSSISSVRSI

[12] = loss of viability in HepG2 cells – cell-based, CellTiter-Glo, cherry-picked, cytotoxicity control for Shn3 inhibitor project, dose response (AID 624134); assay type: functional
[13] = microbe, parasite or virus in culture; assay type: functional; conditions: Mycobacterium tuberculosis
[14] = target: T2, Sphingosine 1-phosphate receptor 4; assay: Late stage fluorescence dose response cell-based screening assay for antagonists of the Sphingosine 1-Phosphate Receptor 4 (S1P4). [Related pubchem assays: 1524 (Confirmation screen (S1P4 antagonists).), 1510 (Primary screen (S1P4 antagonists).), 1853 (Summary AID (S1P4 antagonists).), 1692 (Dose response screen (S1P4 antagonists).)]; assay type: functional
INS1 = assay: INS-1E survival protection against cytokine death – cell-based, luminescence, retest, dose response (AID 449756); assay type: functional; conditions: Rattus norvegicus;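 further: cell death triggered by IL-1 beta plus TNF-alpha plus IFN-gamma mixture; protective hits raise ATP signal compared with cytokine alone wells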
[15] = target: Neurotensin receptor type 1 (Homo sapiens, UniProt P30989); assay type: functional;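 further: Image-based confirmatory dose-response assay measuring agonist activity at NTR1; NTR1-expressing U2OS osteosarcoma cells imaged for beta-arrestin GFP spot formation; agonist potency where compounds increase beta-arrestin recruitment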
[16] = target: Sphingosine 1-phosphate receptor 1 (Homo sapiens, UniProt P21453); assay type: functional;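 further: Tango beta-arrestin reporter U2OS cells stimulated with S1P near its EC80; inhibitor potency meaning antagonism of receptor activation by the natural agonist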
BJ [17] = assay: BJ-TERT-LT-ST fibroblast viability loss – cell-based, RAS-independent, luminescence, dose response (AID 1935); assay type: functional; conditions: Homo sapiens;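 further: BJ fibroblasts immortalized with TERT plus LT and ST oncogenes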
[18] = reduction of Shn3 3'UTR-driven luciferase in osteoblasts – cell-based, Clone20 osteoblasts, firefly luciferase, cherry-picked, dose response (AID 624132); assay type: functional;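 further: firefly luciferase luminescence from reporter carrying the Shn3 3'UTR in osteoblasts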
BJ [19] = assay: BJ-TERT fibroblast viability loss – cell-based, RAS-independent, luminescence, dose response (AID 1933); assay type: functional; conditions: Homo sapiens
[20] = target: Eukaryotic translation initiation factor 4H (Homo sapiens, UniProt Q15056); assay: eIF4H binding inhibition – biochemical, uHTS, fluorescence polarization, translation initiation inhibitor project, primary screen (AID 2012)
[21] = target: T1, Polyadenylate-binding protein 1; assay: blockers of PABP interaction with poly(A) – biochemical, fluorescence polarization, […] (AID 2014)
X-box-binding protein 1 = X-box-binding protein 1 (Homo sapiens, UniProt P17861); assay type: functional, Cricetulus griseus;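 further: confirmatory dose-response counter-screen serving a CHOP assay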
[22] = target: Photoreceptor-specific nuclear receptor (Homo sapiens, UniProt Q9Y5X4); assay type: functional;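 further: potency for compounds that break the NR2E3 corepressor complex and count as activators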
[23] = target: Peroxisome proliferator-activated receptor gamma/Nuclear receptor corepressor 2 (Homo sapiens, UniProt P37231+Q9Y618); assay type: functional
Coagulation factor XII = Coagulation factor XII (Homo sapiens, UniProt P00748); assay: activated coagulation factor XII inhibitor potency, concentration-effect curve, cell-free (AID 716); assay type: functional
[24] = target: Scavenger receptor class B member 1 (Mus musculus, UniProt Q61009); assay: mouse SR-BI DiI-HDL uptake blockers – ldlA[mSR-BI] cells, fluorescence, cherry pick, dose response (AID 493194); assay type: functional, cell-based;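 further: cellular uptake of fluorescent DiI-labeled HDL measured as cell fluorescence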
Sequence of Scavenger receptor class B member 1 (Q61009 whole entry): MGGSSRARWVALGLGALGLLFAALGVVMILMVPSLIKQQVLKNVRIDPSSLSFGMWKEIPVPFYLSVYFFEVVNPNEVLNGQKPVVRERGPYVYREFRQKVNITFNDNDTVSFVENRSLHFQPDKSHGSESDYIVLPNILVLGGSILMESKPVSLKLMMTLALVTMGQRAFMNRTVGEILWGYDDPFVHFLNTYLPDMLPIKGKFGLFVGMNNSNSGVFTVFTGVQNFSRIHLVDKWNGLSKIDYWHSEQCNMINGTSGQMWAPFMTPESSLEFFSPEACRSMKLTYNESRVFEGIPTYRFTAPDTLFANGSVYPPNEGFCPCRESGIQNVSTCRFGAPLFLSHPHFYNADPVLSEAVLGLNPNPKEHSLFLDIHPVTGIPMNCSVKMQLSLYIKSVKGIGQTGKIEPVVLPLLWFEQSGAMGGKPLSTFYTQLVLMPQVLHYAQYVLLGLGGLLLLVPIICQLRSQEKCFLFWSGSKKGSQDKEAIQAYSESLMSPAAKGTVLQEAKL

T1 sequence (P11940 whole entry): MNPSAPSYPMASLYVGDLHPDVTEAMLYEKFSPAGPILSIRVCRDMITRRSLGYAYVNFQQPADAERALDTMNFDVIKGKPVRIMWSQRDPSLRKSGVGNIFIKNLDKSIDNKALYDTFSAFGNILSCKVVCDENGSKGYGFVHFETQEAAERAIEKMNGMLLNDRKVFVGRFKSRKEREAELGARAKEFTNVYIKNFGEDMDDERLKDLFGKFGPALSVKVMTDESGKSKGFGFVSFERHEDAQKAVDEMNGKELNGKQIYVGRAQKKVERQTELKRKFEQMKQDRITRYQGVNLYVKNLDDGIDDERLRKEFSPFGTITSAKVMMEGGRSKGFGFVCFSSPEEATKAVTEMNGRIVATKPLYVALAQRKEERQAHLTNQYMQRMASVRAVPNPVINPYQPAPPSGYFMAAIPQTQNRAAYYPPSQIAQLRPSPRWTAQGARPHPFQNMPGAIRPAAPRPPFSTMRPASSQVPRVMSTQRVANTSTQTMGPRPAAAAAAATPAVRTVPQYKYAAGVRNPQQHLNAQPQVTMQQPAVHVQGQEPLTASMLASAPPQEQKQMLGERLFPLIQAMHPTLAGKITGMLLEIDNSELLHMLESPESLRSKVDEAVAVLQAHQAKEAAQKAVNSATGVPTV
Sequence of Neurotensin receptor type 1 (P30989 whole entry): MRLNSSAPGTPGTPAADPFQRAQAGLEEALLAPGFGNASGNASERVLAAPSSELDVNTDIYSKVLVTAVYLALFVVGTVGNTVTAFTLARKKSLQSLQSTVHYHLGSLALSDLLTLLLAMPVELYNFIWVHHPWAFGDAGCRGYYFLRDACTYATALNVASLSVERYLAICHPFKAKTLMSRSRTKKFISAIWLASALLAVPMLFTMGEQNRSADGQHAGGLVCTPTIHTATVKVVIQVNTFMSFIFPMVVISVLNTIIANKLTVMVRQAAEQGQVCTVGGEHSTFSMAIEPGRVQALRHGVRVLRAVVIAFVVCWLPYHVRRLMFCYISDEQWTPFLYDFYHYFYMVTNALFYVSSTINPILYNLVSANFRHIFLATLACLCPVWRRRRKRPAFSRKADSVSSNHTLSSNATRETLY
Sequence of Photoreceptor-specific nuclear receptor (Q9Y5X4 whole entry): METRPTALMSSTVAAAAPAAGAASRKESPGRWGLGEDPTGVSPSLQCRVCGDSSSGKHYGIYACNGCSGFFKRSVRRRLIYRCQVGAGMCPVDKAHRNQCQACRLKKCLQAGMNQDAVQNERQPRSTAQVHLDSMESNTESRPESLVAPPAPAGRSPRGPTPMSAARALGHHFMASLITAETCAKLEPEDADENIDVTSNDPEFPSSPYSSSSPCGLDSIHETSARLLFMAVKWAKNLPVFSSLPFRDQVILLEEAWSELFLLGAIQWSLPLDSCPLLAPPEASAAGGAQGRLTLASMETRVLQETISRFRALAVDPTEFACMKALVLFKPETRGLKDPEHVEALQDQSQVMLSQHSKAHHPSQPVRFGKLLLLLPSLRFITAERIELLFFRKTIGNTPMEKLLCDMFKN
Sequence of Peroxisome proliferator-activated receptor gamma/Nuclear receptor corepressor 2 (P37231 whole entry): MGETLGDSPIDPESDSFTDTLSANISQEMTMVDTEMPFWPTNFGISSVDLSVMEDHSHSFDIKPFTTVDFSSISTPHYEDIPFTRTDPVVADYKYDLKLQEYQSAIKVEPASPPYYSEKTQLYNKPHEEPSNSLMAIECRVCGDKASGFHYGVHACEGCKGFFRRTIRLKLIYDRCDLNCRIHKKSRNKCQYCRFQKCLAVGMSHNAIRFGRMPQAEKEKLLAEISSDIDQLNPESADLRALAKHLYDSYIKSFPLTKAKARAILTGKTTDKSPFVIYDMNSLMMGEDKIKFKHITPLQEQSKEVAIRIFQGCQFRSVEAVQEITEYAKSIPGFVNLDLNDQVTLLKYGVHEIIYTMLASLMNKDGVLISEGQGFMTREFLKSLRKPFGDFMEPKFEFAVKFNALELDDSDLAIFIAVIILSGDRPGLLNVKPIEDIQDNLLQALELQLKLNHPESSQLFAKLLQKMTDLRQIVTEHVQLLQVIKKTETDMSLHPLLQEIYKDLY
Sequence of Peroxisome proliferator-activated receptor gamma/Nuclear receptor corepressor 2 (Q9Y618 whole entry): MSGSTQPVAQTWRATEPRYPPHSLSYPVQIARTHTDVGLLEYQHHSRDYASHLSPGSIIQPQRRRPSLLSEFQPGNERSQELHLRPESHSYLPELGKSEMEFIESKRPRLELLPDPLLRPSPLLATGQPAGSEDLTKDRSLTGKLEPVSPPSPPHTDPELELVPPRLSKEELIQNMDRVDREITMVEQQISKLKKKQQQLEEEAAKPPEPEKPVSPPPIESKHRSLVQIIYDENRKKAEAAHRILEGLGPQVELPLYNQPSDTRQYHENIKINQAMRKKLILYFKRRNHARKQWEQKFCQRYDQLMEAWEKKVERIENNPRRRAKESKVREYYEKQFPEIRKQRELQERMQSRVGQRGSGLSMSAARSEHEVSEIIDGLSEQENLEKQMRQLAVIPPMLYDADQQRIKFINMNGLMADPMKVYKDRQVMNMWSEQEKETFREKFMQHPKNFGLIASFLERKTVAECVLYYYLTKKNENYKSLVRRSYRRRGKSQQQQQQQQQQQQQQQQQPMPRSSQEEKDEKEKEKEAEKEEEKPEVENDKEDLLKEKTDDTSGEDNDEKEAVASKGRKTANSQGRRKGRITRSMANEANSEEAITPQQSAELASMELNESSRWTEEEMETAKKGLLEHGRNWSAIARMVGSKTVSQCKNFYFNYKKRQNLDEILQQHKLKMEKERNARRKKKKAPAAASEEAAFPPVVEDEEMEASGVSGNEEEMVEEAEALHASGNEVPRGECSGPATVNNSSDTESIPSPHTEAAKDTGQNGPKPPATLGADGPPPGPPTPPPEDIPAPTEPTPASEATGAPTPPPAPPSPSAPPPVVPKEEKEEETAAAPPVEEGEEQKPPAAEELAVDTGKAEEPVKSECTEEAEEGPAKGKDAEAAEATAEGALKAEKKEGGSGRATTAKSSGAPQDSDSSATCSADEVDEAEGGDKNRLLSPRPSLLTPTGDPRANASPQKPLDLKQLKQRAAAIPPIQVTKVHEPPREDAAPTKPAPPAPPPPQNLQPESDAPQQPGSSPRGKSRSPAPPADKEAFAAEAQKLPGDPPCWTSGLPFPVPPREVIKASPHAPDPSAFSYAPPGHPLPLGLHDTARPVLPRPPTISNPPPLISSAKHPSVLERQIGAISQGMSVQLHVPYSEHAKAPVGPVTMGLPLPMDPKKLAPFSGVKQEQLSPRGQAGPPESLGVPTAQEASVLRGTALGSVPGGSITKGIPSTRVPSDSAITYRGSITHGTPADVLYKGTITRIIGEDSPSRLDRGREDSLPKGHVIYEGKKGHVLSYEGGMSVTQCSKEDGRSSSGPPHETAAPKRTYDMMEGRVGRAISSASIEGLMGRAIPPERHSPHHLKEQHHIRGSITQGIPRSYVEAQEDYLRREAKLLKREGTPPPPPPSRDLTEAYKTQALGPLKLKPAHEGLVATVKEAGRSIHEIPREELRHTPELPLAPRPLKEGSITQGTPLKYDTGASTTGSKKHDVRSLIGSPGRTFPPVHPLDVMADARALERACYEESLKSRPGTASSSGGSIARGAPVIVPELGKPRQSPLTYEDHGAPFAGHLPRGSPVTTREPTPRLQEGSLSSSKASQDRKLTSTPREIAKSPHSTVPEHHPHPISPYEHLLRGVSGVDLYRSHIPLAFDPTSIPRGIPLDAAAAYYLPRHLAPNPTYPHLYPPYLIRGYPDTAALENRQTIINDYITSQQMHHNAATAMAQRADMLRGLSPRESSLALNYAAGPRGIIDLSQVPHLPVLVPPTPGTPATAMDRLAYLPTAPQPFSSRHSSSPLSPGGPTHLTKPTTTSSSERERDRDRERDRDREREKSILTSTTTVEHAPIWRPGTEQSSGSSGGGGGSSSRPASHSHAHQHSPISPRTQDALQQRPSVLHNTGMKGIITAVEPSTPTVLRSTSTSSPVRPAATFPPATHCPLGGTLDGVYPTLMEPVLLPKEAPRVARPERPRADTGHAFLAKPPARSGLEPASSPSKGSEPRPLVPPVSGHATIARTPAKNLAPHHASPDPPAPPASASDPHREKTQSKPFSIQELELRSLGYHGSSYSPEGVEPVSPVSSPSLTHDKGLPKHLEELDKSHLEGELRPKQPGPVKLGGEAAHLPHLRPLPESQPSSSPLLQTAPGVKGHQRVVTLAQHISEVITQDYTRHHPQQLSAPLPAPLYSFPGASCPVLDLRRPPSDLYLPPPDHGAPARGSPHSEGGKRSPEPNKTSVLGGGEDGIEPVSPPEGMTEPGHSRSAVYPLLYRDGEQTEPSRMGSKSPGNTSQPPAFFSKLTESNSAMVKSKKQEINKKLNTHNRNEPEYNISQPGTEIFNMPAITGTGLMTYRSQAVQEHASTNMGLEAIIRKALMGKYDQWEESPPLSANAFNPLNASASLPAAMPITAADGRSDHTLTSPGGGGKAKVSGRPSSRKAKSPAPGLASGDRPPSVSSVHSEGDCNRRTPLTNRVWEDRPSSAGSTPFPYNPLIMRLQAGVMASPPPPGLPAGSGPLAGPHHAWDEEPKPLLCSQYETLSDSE

**Q.** Which CC50 [1] does the source give for `N=C(N)SCCc1cccc(CCSC(=N)N)c1` here?
**A.** The CC50 was 47.9 µM (active).

**Q.** For `COc1ccc(N=C(S)NC(NC(=O)c2cccc(Cl)c2)C(Cl)(Cl)Cl)c([N+](=O)[O-])c1` (centres undefined), which EC50 [2] is on record?
**A.** The EC50 was 1.6 µM (active).

**Q.** What about the IC50 [3] of the same compound?
**A.** The IC50 was > 66 µM (inactive).

**Q.** And the EC50 [4]?
**A.** The EC50 was > 35.4 µM (not active).

**Q.** And the EC50 [5]?
**A.** The EC50 was > 30 µM (not active).

**Q.** And the EC50 (HEK293)?
**A.** Its EC50 is > 35.4 µM (not active).

**Q.** And the IC50 [6]?
**A.** The IC50 was > 66 µM (inactive).

**Q.** What about the EC50 [7] of the same compound?
**A.** Its EC50 is 16.7 µM (not active).

**Q.** Which AC50 [8] does the source give for `O=C(/C(=C/c1ccc(Cl)cc1)c1nc2ccccc2[nH]1)c1cccs1` here?
**A.** Its AC50 is 8.35 µM (active).

**Q.** What about the EC50 [9] of the same compound?
**A.** Its EC50 is 5.28 µM (inconclusive).

**Q.** What about the EC50 (BJ [10]) of the same compound?
**A.** The EC50 was 9.34 µM (active).

**Q.** What about the EC50 [2] of the same compound?
**A.** The EC50 was 1.03 µM (active).

**Q.** And the IC50 [11]?
**A.** The IC50 was 370 nM (active).

**Q.** And the AC50 [12]?
**A.** The AC50 was 8.26 µM (active).

**Q.** And the CC50 [13]?
**A.** Its CC50 is 2.9 µM (active).

**Q.** And the IC50 [14]?
**A.** Its IC50 is 737 nM (active).

**Q.** What about the AC50 (INS1) of the same compound?
**A.** Its AC50 is 3.71 µM (active).

**Q.** What about the EC50 [15] of the same compound?
**A.** Its EC50 is 12.6 µM (active).

**Q.** What about the IC50 [16] of the same compound?
**A.** The IC50 was 6.77 µM (active).

**Q.** What about the EC50 (BJ [17]) of the same compound?
**A.** Its EC50 is 3.71 µM (inconclusive).

**Q.** What about the AC50 [18] of the same compound?
**A.** Its AC50 is 2.66 µM (active).

**Q.** And the EC50 [5]?
**A.** The EC50 was 5.47 µM (active).

**Q.** What about the EC50 (BJ [19]) of the same compound?
**A.** The EC50 was 4.27 µM (inconclusive).

**Q.** For `O=C(COC(=O)CCC(=O)c1ccc(Cl)cc1)NCc1ccco1`, which IC50 [20] is on record?
**A.** Its IC50 is 11.1 µM (active).

**Q.** What about the IC50 [21] of the same compound?
**A.** Its IC50 is 26.7 µM (active).

**Q.** With `O=C(NCc1ccccc1)c1cc(-c2ccncc2)nc2ccc(S(=O)(=O)N3CCOCC3)cc12` as the compound, how does the “Absolute IC50 (XBP1)” value (X-box-binding protein 1) read?
**A.** The value was 10 µM.

**Q.** With `O=C(C1=C(O)C(=O)N(CCCN2CCOCC2)C1c1ccc(Cl)cc1)c1cc2ccccc2o1` (centres undefined) as the compound, how does the IC50 [22] read?
**A.** The IC50 was > 39.8 µM (not active).

**Q.** And the IC50 [23]?
**A.** The IC50 was 5.14 µM (active).

**Q.** With `CCOC(=O)c1[nH]c2ccc(OC)cc2c1NC(=O)N1CCOCC1` as the compound, how does the IC50 (Coagulation factor XII) read?
**A.** The IC50 was > 50 µM (inactive).

**Q.** Which EC50 [9] does the source give for `Cc1c(C(=O)OCCOC(C)C)[nH]c2c1C(=O)CC(c1ccco1)C2` (centres undefined) here?
**A.** The EC50 was 1.28 µM (inconclusive).

**Q.** What about the EC50 (BJ [10]) of the same compound?
**A.** The EC50 was 1.71 µM (inconclusive).

**Q.** What about the AC50 [24] of the same compound?
**A.** The AC50 was 34 µM (active).

**Q.** What about the EC50 (BJ [17]) of the same compound?
**A.** Its EC50 is 0.73 µM (inconclusive).

**Q.** What about the EC50 (BJ [19]) of the same compound?
**A.** Its EC50 is 0.37 µM (active).
